Here are results for eight compounds from patent US10435375B2, “CXCR4 chemokine receptor modulators” (NORTHWESTERN UNIVERSITY, priority 2015, dated 2019).

One data set has as its target T1, CXCR4-YFP (Homo sapiens, UniProt P61073).
T1 construct: expressed in transfected cells; host or cells: HEK293 cells
Briefly: Internalization of YFP-tagged CXCR4 receptors in HEK293 cells. The class given is cell-based. To be noted: for inhibition of NUCC-390-induced CXCR4-YFP internalization: AMD3100 1 μM; for CXCR4-YFP receptor internalization: 2 hours, SDF-1 100 nM, NUCC-390 10 μM.

The target of data set [1] is T2, CXCR4 (Homo sapiens, UniProt P61073). Briefly: Calcium imaging ((Ca)i mobilization) assay, fura-2, C8161 melanoma cells. Type of data set: cell-based. Also noted: human melanoma cell line C8161 was initially used, which expresses numerous human CXCR4 receptors; endogenous in cells; host or cells: C8161 human melanoma cells. To be noted: for effect on SDF-1-induced (Ca)i response: test compounds 10 μM; for Ca^2+ Assay: Table 1, calcium imaging behavior; for Pharmacology: Table 2, agonist or antagonist; for compound's (Ca)i response in presence of CXCR4 antagonist AMD3100: AMD3100 1 μM where stated; for own (Ca)i response (agonist effect): compounds 10 μM where stated, SDF-1 100 nM. The source says:
The initial assay for examining the activity of different molecules was based on the fact that activation of CXCR4 receptors produces an increase in the intracellular free Ca^2+ concentration (Ca)i. This signal can easily be observed using a fluorescent Ca^2+ sensing dye such as fura-2. The quantitative nature of this assay makes it ideal for screening purposes. Moreover, the assay can also distinguish potential antagonists from potential agonists. The aggressive human melanoma cell line C8161 was initially used, which expresses numerous human CXCR4 receptors and produces strong (Ca)I signals when stimulated with SDF-1 (FIG. 3). In the assay, cells were usually stimulated twice with SDF-1. […] To test a drug, the compound in question was usually added prior to the second stimulation with SDF-1. At this point it was possible to observe whether the compound itself acted as an agonist by giving its own response or if it reduced the magnitude of the second response to SDF-1. […] Each of the four antagonists were then assayed at multiple concentrations to obtain a dose-response relationship and an estimated IC50. Antagonists NUCC-388, 397, 392, and 51420 had IC50 values of 0.3 μM, 3 μM, 1 μM, and 1 μM respectively.

A further data set concerns C8161 cells. Briefly: Chemotaxis of C8161 cells, Boyden chamber assay. The class given is cell-based, human. The settings on record: SDF-1 100 nM, NUCC-390 10 μM, p<0.01, n=6. An excerpt: Chemokines are well known for their ability to stimulate chemotaxis of leukocytes and stem cells. In order to further establish the biological activity of the CXCR4 agonists, the ability of SDF-1 and NUCC-390 to produce chemotaxis of C8161 cells was compared using a Boyden chamber assay.

In another data set the test system is U937 cells. Briefly: Cell viability assay, U937 cells, with Ara-C. The class given is cell-based. As for the experimental part: FIG. 20. Cell viability assay with agonist NUCC-390 and known chemotherapeutics. The first bar is viability no NUCC-390 or Ara-C. Otherwise, the concentration of NUCC-390 was maintained at 50 μM in all experiments. U937 cells were treated with NUCC-390 and the indicated concentration of Ara-C.

The target in data set [2] is T2, CXCR4. Briefly: ERK activation (pERK, Western blot) in C8161 cells. The class given is cell-based. Also noted: human melanoma cell line C8161 was initially used, which expresses numerous human CXCR4 receptors; endogenous in cells; host or cells: C8161 human melanoma cells. The settings on record: SDF-1 100 nM, NUCC-390 10 μM, 30 min. An excerpt: To further explore the agonist potential of compound NUCC-390, changes in signaling downstream of CXCR4 were examined. For these experiments, lysates were collected from treated C8161 cells and analyzed them using Western blot. […] That drug NUCC-390 has the capability of stimulating signaling activity downstream of CXCR4 receptors further supports the observation that NUCC-390 acts as a CXCR4 agonist.

A further data set deals with KT1 cells. Briefly: Cell viability assay measuring colony forming units of KT1 cells, with imatinib. The class given is cell-based. To be noted: combination with imatinib. As for the experimental part:
FIG. 21. Cell viability assay measuring colony forming units of KT1 cells. Cells were treated with kinase inhibitor imatinib, the indicated CXCR4 agent, or a combination, at the indicated concentrations.

Data set [3] has as its system cells from AML patient #2. Briefly: Cell viability assay measuring colony forming units, cells from AML patient #2, with Ara-C. Type of data set: cell-based. The settings on record: AML patient #2 cells; combination with Ara-C. As for the experimental part: FIG. 22. Cell viability assay measuring colony forming units of from AML patient #2. Cells were treated with cytotoxic agent Ara-C, the indicated CXCR4 agent, or a combination.

Data set [4] addresses T2, CXCR4. Briefly: (Ca)i mobilization assay using CXCR4 expressing U87 cells. The class given is cell-based. Also noted: host or cells: U87 glioblastoma cells.
Where [5] appears, read: C8161 cells, listed as NUCC-390.

Entries after “also recorded” stand apart in the source; their conditions may differ.

T2 sequence (P61073 whole entry): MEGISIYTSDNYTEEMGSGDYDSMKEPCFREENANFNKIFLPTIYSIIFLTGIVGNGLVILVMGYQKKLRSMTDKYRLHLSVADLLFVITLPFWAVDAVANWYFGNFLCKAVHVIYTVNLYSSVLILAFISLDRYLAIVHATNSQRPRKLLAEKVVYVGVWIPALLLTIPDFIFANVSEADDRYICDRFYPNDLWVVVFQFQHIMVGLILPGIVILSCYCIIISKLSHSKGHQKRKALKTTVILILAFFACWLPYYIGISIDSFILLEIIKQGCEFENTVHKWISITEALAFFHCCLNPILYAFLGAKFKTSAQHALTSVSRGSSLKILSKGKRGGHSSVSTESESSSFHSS
T1 sequence (P61073 whole entry): as above

As to `c1cc(CN2CCCNCCNCCCNCC2)ccc1CN1CCCNCCNCCCNCC1` [AMD3100, reference compound], the “inhibition of NUCC-390-induced CXCR4-YFP internalization” value is “blocks internalization” at CXCR4-YFP and “completely inhibited” on CXCR4-YFP (listed as AMD-3100). Besides, the “effect on SDF-1-induced (Ca)i response” value on CXCR4 [1] (C8161 cells) is recorded as “completely blocked stimulation with SDF-1; also recorded: blocked the effects of SDF-1”.
For `CN(C)CCNC1CCc2c(c(C(=O)N(C)Cc3ccccc3)nn2C)C1` (stereo not drawn) [NUCC-0000388], the “inhibition of NUCC-390-induced CXCR4-YFP internalization” value at CXCR4-YFP is listed as “completely inhibited”. Moreover, at CXCR4 [1] (C8161 cells), the “inhibition of NUCC-390-induced (Ca)i response” value was “inhibited”. Further, the IC50 on CXCR4 [1] (C8161 cells, multiple concentrations, dose-response, read-out: estimated IC50 (antagonism of SDF-1 (Ca)i response)) was 300 nM. Moreover, the “effect on SDF-1-induced (Ca)i response” value at CXCR4 [1] (C8161 cells, listed as NUCC-388) was “antagonized the effects of SDF-1; also recorded: blocks the effect of SDF-1; also recorded: completely inhibited the second addition of SDF-1”. At CXCR4 [1], the “Ca^2+ Assay” value is “Antagonist” and the Pharmacology entry is listed as “Antagonist”.
`CCCn1nc(C(=O)N2CCCCC2)c2c1CCC(NCCc1ccncc1)C2` (stereo not drawn) [NUCC-0000390, Piperidin-1-yl(1-propyl-5-((2-(pyridin-4-yl)ethyl)amino)-4,5,6,7-tetrahydro-1H-indazol-3-yl)methanone]: the CXCR4-YFP receptor internalization entry at CXCR4-YFP was “causes most of the CXCR4 receptor to become internalized”. Moreover, the chemotaxis entry in the data set on C8161 cells is “matched by the effects of NUCC-390”. Further, in the data set with U937 cells (NUCC-390 50 μM), the “effect on cell viability, compound alone” value is “only a modest effect by itself”. In addition, in the data set on U937 cells (NUCC-390 50 μM plus Ara-C), the “effect on cytotoxicity of Ara-C in combination” value is “significantly increased the cytotoxicity of Ara-C”. Moreover, on CXCR4 [1] (setting [5]), the “compound's (Ca)i response in presence of CXCR4 antagonist AMD3100” value was “completely inhibited; also recorded: completely blocked by AMD3100” and the “own (Ca)i response (agonist effect)” value is on record as “produced their own response; also recorded: effects were similar to those produced by SDF-1; also recorded: strong (Ca)i response; also recorded: produced agonist effects”. Moreover, on CXCR4 [1], the “Ca^2+ Assay” value is on record as “Agonist” and the Pharmacology result is reported as “Agonist”. Further, the “level of phosphorylated ERK (pERK)” value at CXCR4 [2] was “increased levels of pERK; also recorded: Increase in pERK”.
As to `CCCn1nc(C(=O)N(C)C)c2c1CCC(NCc1ccc(F)cc1)C2` (stereo not drawn) [NUCC-0054121, 5-((4-Fluorobenzyl)amino)—N,N-dimethyl-1-propyl-4,5,6,7-tetrahydro-1H-indazole-3-carboxamide], in the data set on KT1 cells, the “effect on cell killing by imatinib (colony forming units)” value is reported as “enhanced the cell killing ability of imatinib”. Moreover, in data set [3], the “effect on cell killing by Ara-C (colony forming units)” value is given as “enhanced the cell killing ability of Ara-C”. In addition, on CXCR4 [1] (C8161 cells), the “compound's (Ca)i response in presence of CXCR4 antagonist AMD3100” value is reported as “inhibited by AMD3100” and the “own (Ca)i response (agonist effect)” value is recorded as “robust agonist activity”. For the same compound, on CXCR4 [1], the “Ca^2+ Assay” value was “Agonist” and the Pharmacology result is “Agonist”.
Regarding `Cn1nc(C(=O)N2CCCCC2)c2c1CCC(NCCCN1CCOCC1)C2` (stereo not drawn) [NUCC-0176288], the “own (Ca)i response (agonist effect)” value on CXCR4 [4] was “robust calcium response”. The “effect on SDF-1-induced (Ca)i response” value on CXCR4 [1] (C8161 cells) is recorded as “blocks the effect of SDF-1”. Moreover, the Pharmacology result on CXCR4 [1] was “Antagonist”.
For `CCCn1nc(C(=O)N(C)Cc2ccccc2)c2c1CCC(NCCc1ccncc1)C2` (stereo not drawn) [NUCC-0176299] the same measures were “robust calcium response”, “blocks the effect of SDF-1” and “Antagonist”.
Regarding `CCCn1nc(C(=O)N(C)C)c2c1CCC(NCCCN1CCCC1=O)C2` (stereo not drawn) [NUCC-0176311], at CXCR4 [1] (C8161 cells), the “own (Ca)i response (agonist effect)” value is given as “robust calcium response”. At CXCR4 [1], the Pharmacology entry is “Agonist”.
For “SDF-1: cognate agonist for CXCR4, the 93 amino acid protein CXCL12 (SDF-1)”, in the data set with CXCR4-YFP, the CXCR4-YFP receptor internalization result is given as “pronounced internalization of CXCR4-YFP; also recorded: causes most of the CXCR4 receptor to become internalized”. Moreover, in the data set on C8161 cells, the chemotaxis result is reported as “robust chemotactic activity”. Further, in the data set with CXCR4 [1] (C8161 cells), the “own (Ca)i response (agonist effect)” value was “two strong (Ca)i responses”. In addition, the “level of phosphorylated ERK (pERK)” value in the data set with CXCR4 [2] was “increased levels of phosphorylated ERK; also recorded: Increase in pERK”.
